According to patent US10100010B1, “4-methoxy pyrrole derivatives or salts thereof and pharmaceutical composition comprising the same” (Daewoong Pharmaceutical Co., Ltd., priority 2015, dated 2018):
Where a name gives a salt, the structure may show the parent alone.

Columns and labels:
Assay type in all cases: cell-based
5-HT2A = 5-HT2A (Homo sapiens, UniProt P28223); test: GPCR Calcium Flux assay (FLIPR tetra, Eurofins), 5-HT2A; settings: for IC50: 8 concentrations 10 to 0.0006 uM, read-out: 50% inhibitory concentration (IC50) 5-HT2A; for inhibition at 10 µM: single concentration of 10 uM, read-out: inhibition rate (%) 5-HT2A
Experimental: (§1) In order to confirm whether the compounds prepared in the above Examples act as an agonist or antagonist against GPCR Target, Calcium Flux assay was performed in an assay plate in which the compounds prepared in the Examples, vehicle controls, and reference compounds were added, using a Fluorometric imaging plate reader (FLIPR tetra) equipment.
(§2) Calcium Flux assay was evaluated by entrusting the GPCR profiler assay in Safety panel assays with Eurofins. By using the Fluo-8AM calcium dye, excitation was measured at a wavelength in the range of 470 to 495 nm and Emission was measured at a wavelength in the range of 515-575 nm. GPCR Assay Buffer for Calcium Flux assay was prepared by adding 20 mM of HEPES and 2.5 mM of Probenecid to Hanks Balanced Salt Solution (HBSS) to have pH 7.4. The Compounds of Examples for evaluation of the GPCR were diluted with DMSO at a concentration of 10 mM to make a stock and then prepared by diluting in the GPCR Assay Buffer at the concentration equivalent to three times the final concentration. First, for the evaluation of GPCRs, the inhibitory activity of the compounds of the Examples was evaluated at a single concentration of 10 uM, and then the respective selected targets were four fold-diluted from 10 uM to the low side to calculate 50% inhibitory concentration (IC50), prepared at the total 8 concentrations of 10, 2.5, 0.62, 0.15, 0.04, 0.01, 0.0024, 0.0006 uM, and Calcium Flux assay for GPCR was conducted. In order to evaluate the agonist and antagonist, % inhibition rate against GPCR activity before and after treatment of the compounds and the inhibitory activity of the compounds of the Examples were determined.
(§3) As a result, when the efficacy of […] and acetylcholine of the compounds prepared in the Examples was 100%, the inhibition rate (%) at a single concentration of 10 uM was evaluated and shown in Table 8.

M1 = molecular target: T1, M1 (Homo sapiens, UniProt P11229); test: GPCR Calcium Flux assay (FLIPR tetra, Eurofins), M1; settings: for IC50: 8 concentrations 10 to 0.0006 uM, read-out: 50% inhibitory concentration (IC50) M1; for inhibition at 10 µM: single concentration of 10 uM, read-out: inhibition rate (%) M1
T1 sequence (P11229 1-460): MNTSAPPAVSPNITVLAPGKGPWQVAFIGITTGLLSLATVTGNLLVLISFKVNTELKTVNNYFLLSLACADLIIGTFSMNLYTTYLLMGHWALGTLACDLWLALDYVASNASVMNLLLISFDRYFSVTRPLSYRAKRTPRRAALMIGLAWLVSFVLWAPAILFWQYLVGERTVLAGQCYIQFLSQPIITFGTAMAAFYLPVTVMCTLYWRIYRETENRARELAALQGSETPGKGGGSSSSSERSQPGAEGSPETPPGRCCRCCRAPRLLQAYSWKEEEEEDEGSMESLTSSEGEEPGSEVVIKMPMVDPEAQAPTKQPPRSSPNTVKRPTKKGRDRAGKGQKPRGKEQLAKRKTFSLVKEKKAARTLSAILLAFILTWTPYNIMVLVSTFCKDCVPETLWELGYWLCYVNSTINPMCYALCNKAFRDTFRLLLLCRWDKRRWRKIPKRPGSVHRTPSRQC
Experimental: as §1, §2, §3

M2 = molecular target: T2, M2 (Homo sapiens, UniProt P08172); test: GPCR Calcium Flux assay (FLIPR tetra, Eurofins), M2; settings: for inhibition at 10 µM: single concentration of 10 uM, read-out: inhibition rate (%) M2
T2 sequence (P08172 1-466): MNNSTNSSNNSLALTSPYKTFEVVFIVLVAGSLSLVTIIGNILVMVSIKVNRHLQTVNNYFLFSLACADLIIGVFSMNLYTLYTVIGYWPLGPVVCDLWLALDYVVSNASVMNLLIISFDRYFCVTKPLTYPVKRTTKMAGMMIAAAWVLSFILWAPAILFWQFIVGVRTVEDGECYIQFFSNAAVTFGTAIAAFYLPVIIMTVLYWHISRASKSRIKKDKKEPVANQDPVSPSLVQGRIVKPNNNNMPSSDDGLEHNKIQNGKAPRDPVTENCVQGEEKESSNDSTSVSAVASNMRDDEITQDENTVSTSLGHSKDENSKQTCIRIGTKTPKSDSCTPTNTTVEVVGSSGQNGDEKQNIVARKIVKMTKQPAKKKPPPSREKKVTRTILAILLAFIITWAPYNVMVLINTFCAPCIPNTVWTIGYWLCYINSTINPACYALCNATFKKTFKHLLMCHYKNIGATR
Experimental: as §1, §2, §3

Sequence of 5-HT2A (P28223 whole entry): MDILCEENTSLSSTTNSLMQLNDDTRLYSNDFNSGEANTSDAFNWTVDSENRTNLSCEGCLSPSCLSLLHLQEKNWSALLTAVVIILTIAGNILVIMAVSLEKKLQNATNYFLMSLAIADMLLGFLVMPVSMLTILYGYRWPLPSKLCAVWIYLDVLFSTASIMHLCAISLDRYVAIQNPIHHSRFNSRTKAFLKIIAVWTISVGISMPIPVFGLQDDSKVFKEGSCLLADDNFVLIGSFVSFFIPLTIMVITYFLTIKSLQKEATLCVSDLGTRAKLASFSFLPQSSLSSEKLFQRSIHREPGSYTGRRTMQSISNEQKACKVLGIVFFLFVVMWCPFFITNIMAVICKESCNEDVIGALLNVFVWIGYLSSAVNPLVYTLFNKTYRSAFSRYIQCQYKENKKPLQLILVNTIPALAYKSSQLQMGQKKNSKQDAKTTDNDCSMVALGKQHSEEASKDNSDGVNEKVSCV

Compound	IC50 (5-HT2A)	inhibition at 10 µM (5-HT2A)	IC50 (M1)	inhibition at 10 µM (M1)	inhibition at 10 µM (M2)	IC50 (M2; 8 concentrations 10 to 0.0006 uM, read-out: 50% inhibitory concentration (IC50) M2)
CNCc1cn(S(=O)(=O)c2cccc(Cl)c2)c(-c2ccc(Cl)cc2F)c1OC [Example 6, 1-(5-(2-fluoro-4-chlorophenyl)-4-methoxy-1-((3-chlorophenyl)sulfonyl)-1H-pyrrol-3-yl)-N-methylmethanamine hydrochloride]	0.16 µM	102%	~3 µM	93.1%	15.1%	
CNCc1cn(S(=O)(=O)c2cccc(Cl)c2)c(-c2ccccc2F)c1OC [Example 1, 1-(5-(2-fluorophenyl)-4-methoxy-1-((3-chlorophenyl)sulfonyl)-1H-pyrrol-3-yl)-N-methylmethanamine hydrochloride]	0.25 µM	96.4%	1.7 µM	99.6%	66.5%	
CNCc1cn(S(=O)(=O)c2cccc(OC)c2)c(-c2ccccc2Cl)c1OC [Example 5, 1-(5-(2-chlorophenyl)-4-methoxy-1-((3-methoxyphenyl)sulfonyl)-1H-pyrrol-3-yl)-N-methylmethanamine hydrochloride]		69.1%		93.7%	75.1%	
CNCc1cn(S(=O)(=O)c2cccc(F)c2)c(-c2c(F)cccc2Cl)c1OC [Example 20, 1-(5-(2-fluoro-6-chlorophenyl)-1-((3-fluorophenyl)sulfonyl)-4-methoxy-1H-pyrrol-3-yl)-N-methylmethanamine hydrochloride]		99.2%		103%	90.5%	
CNCc1cn(S(=O)(=O)c2cccc(Cl)c2)c(-c2c(F)cccc2F)c1OC [Example 14, 1-(5-(2,6-difluorophenyl)-1-((3-chlorophenyl)sulfonyl)-4-methoxy-1H-pyrrol-3-yl)-N-methylmethanamine hydrochloride]	0.21 µM	99.9%		94.9%	48.1%	
CNCc1cn(S(=O)(=O)c2cccc(C(F)(F)F)c2)c(-c2ccc(Cl)cc2F)c1OC [Example 7, 1-(5-(2-fluoro-4-chlorophenyl)-4-methoxy-1-((3-(trifluoromethyl)phenyl)sulfonyl)-1H-pyrrol-3-yl)-N-methylmethanamine hydrochloride]		42.3%		65.6%	0.8%	
CNCc1cn(S(=O)(=O)c2cccc(C(F)(F)F)c2)c(-c2cc(F)ccc2F)c1OC [Example 32, 1-(5-(2,5-difluorophenyl)-1-((3-trifluoromethylphenyl)sulfonyl)-4-methoxy-1H-pyrrol-3-yl)-N-methylmethanamine hydrochloride]		10.6%		52.6%	10.8%	
CNCc1cn(S(=O)(=O)c2cccc(Cl)c2)c(-c2c(F)ccc(F)c2F)c1OC [Example 28, 1-(1-((3-chlorophenyl)sulfonyl)-4-methoxy-5-(2,3,6-trifluorophenyl)-1H-pyrrol-3-yl)-N-methylmethanamine hydrochloride]	0.067 µM	97.6%	0.55 µM	99.4%	61.9%	
CNCc1cn(S(=O)(=O)c2ccc(F)c(F)c2)c(-c2c(F)cccc2F)c1OC [Example 19, 1-(5-(2,6-difluorophenyl)-1-((3,4-difluorophenyl)sulfonyl)-4-methoxy-1H-pyrrol-3-yl)-N-methylmethanamine hydrochloride]	0.12 µM	102%	0.43 µM	101%	102%	0.82 µM
